# Experiments:
# CXCR1 = biological target: T1, CXCR1 (Homo sapiens, UniProt P25024); experiment: IL-8 induced PMN chemotaxis test; assay type: cell-based; conditions: for inhibition at 0.01 µM: read-out: % of inhibition IL-8 (c = 10^−8 M); for inhibition at 1 µM: compound 10^−6 M, IL-8 induced PMN chemotaxis, IL-8 10^−9 M, read-out: % inhibition (C = 10^−6 M)
# T1 construct: endogenous in cells; host or cells: human polymorphonucleate leukocytes (PMNs) from blood of healthy volunteers
# T1 sequence (P25024 1-350): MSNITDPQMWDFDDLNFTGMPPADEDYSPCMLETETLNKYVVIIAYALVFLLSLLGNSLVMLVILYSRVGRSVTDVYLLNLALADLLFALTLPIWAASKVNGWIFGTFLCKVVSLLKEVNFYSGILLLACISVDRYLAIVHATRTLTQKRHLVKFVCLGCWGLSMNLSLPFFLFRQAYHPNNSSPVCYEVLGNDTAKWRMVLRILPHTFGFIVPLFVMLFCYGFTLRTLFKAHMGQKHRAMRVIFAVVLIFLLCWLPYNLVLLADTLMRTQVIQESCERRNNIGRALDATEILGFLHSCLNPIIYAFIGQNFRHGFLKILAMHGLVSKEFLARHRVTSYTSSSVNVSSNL
# Method: (§1) The compounds of the invention of formula (I) were evaluated in vitro for their ability to inhibit chemotaxis of polymorphonucleate leukocytes (hereinafter referred to as PMNs) and monocytes induced by the fractions of IL-8 and GRO-α. For this purpose, in order to isolate the PMNs from heparinized human blood, taken from healthy adult volunteers, mononucleates were removed by means of sedimentation on dextran (according to the procedure disclosed by W. J. Ming et al., J. Immunol., 138, 1469, 1987) and red blood cells by a hypotonic solution. The cell vitality was calculated by exclusion with Trypan blue, whilst the ratio of the circulating polymorphonucleates was estimated on the cytocentrifugate after staining with Diff Quick.
# Human recombinant IL-8 (Pepro Tech) was used as stimulating agents in the chemotaxis experiments, giving practically identical results: the lyophilized protein was dissolved in a volume of HBSS containing 0.2% bovin serum albumin (BSA) so thus to […]
# (§2) During the chemotaxis assay (according to W. Falket et al., J. Immunol. Methods, 33, 239, 1980) PVP-free filters with a porosity of 5 μm and microchambers suitable for replication were used.
# (§3) The compounds of the invention in formula (I) were evaluated at a concentration ranging between 10^−6 and 10^−10 M; for this purpose they were added, at the same concentration, both to the lower pores and the upper pores of the microchamber. Evaluation of the ability of the compounds of the invention of formula (I) to inhibit IL-8-induced chemotaxis of human monocytes was carried out according to the method disclosed by Van Damme J. et al. (Eur. J. Immunol., 19, 2367, 1989).
# CXCR2 = biological target: T2, CXCR2 (Homo sapiens, UniProt P25025); experiment: GRO-α induced PMN chemotaxis test; assay type: cell-based; conditions: compound 10^−8 M, PMN chemotaxis induced by GRO-α; for inhibition at 0.01 µM: read-out: % of inhibition GRO-α (c = 10^−8 M)
# T2 construct: endogenous in cells; host or cells: human polymorphonucleate leukocytes (PMNs) from blood of healthy volunteers
# T2 sequence (P25025 1-360): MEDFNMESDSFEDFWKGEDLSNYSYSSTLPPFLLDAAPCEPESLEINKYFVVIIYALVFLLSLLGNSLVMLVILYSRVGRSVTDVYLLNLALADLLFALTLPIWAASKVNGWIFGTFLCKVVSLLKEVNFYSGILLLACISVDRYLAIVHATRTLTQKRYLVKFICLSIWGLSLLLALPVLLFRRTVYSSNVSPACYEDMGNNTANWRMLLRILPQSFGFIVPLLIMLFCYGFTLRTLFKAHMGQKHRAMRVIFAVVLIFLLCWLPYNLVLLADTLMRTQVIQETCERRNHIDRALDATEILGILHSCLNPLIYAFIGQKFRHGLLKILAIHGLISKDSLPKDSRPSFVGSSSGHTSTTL
# Method: as §1, §2, §3
# In the table below, biological activities of compounds showing high potency in the inhibition of PMN chemotaxis induced as by IL-8 as by the selective CXCR2 agonist GRO-α are reported.
# [1] = compound 10^−8 M, PMN chemotaxis induced by IL-8
SMILES,inhibition at 0.01 µM (CXCR1; [1]) [%],inhibition at 0.01 µM (CXCR2) [%],inhibition at 1 µM (CXCR1) [%],also measured
"C[C@@H](C(=O)O)c1ccc(OS(=O)(=O)Cc2ccccc2)cc1 [Example 36, (R) 2-(4′-benzylsulfonyloxy)phenylpropionic acid]",59 ± 11,25 ± 11,,
C[C@@H](C(=O)O)c1ccc(NS(=O)(=O)c2ccccc2)cc1 [Example 27],,,,% of inhibition IL-8 (c = 10^−8 M) (CXCR1; [1]): 49 ± 11%; % of inhibition GRO-α (c = 10^−8 M) (CXCR2): 33 ± 11+ %
"CC(C)c1cccc([C@@H](C)C(=O)O)c1 [Example 10, (R)-2-[(3′-isopropyl)phenyl]-propionic acid]",,,43 ± 18,
"CC(C)c1cccc(C(C)C(=O)O)c1 (stereo not drawn) [Example 5, 2-[(3′-isopropyl)phenyl]propionic acid]",,,51 ± 12,
C[C@@H](C(=O)O)c1ccccc1Nc1c(Cl)cccc1Cl [Example 19],,,46 ± 14,
"CC(C(=O)O)c1ccccc1Oc1c(Cl)cccc1Cl (racemic) [Example 25, (R,S) 2-[2′-(2″,6″-dichloro)phenoxy]phenylpropionic acid]",,,41 ± 9,
"CC(O)c1cccc(C(C)C(=O)O)c1 [Example 16, (R,S), (R,S) 2-[3′-(alpha-hydroxy-ethyl)phenyl]propionic acid]",,,57 ± 6,
"CCC(CC)c1cccc(C(C)C(=O)O)c1 (racemic) [Example 6, (R,S) 2-[3′-(alpha-ethyl-propyl)phenyl]propionic acid]",,,58 ± 2,
"CC(C(=O)O)c1ccccc1Nc1c(Cl)cccc1Cl (racemic) [Example 18, (R,S) 2-[2′-(2″,6″-dichlorophenyl)aminophenylpropionic acid]",,,52 ± 3,
C[C@H](C(=O)O)c1ccccc1Nc1c(Cl)cccc1Cl [Example 20],,,50 ± 7,
"CC(C)c1cccc([C@H](C)C(=O)O)c1 [Example 14, (S)-2-[(3′-isopropyl)phenyl]-propionic acid]",,,50 ± 9,
CC(C(=O)O)c1cccc(C(C)c2ccccc2)c1 (stereo not drawn) [Example 7],,,54 ± 4,

# Continued, in another order:
inhibition at 0.01 µM (CXCR1; [1]) [%],inhibition at 0.01 µM (CXCR2) [%],inhibition at 1 µM (CXCR1) [%],SMILES,also measured
48 ± 7,45 ± 7,,"C[C@@H](C(=O)O)c1ccc(CS(=O)(=O)C(F)(F)F)cc1 [Example 43, (R) 2-(4′-trifluoromethanesulfonylmethyl)phenylpropionic acid]",
45 ± 13,70 ± 10,,"CCc1ccccc1S(=O)(=O)Oc1ccc([C@@H](C)C(=O)O)cc1 [Example 40, (R) 2-[4′-(2″-ethyl)benzenesulfonyloxy]phenylpropionic acid]",
62 ± 7,59 ± 10,,"C[C@@H](C(=O)O)c1ccc(OS(=O)(=O)C(F)(F)F)cc1 [Example 37, (R) 2-(4′-trifluoromethanesulfonyloxy)phenylpropionic acid]",
-2 ± 10,66 ± 10,,"C[C@@H](C(=O)O)c1ccc(NS(=O)(=O)c2ccccc2Cl)cc1 [Example 32, (R) 2-[4′-(2″-chloro)benzenesulfonylamino]phenylpropionic acid]",
25 ± 7,32 ± 5,,"C[C@@H](C(=O)O)c1ccc(NS(C)(=O)=O)cc1 [Example 28, (R) 2-(4′-methanesulfonylamino)phenylpropionic acid]",
55 ± 10,2 ± 5,,"C[C@@H](C(=O)O)c1ccc(NS(N)(=O)=O)cc1 [Example 34, (R) 2-(4′-aminosulfonylamino)phenylpropionic acid]",
44 ± 14,80 ± 10,,"CCc1ccccc1S(=O)(=O)Nc1ccc([C@@H](C)C(=O)O)cc1 [Example 33, (R) 2-[4′-(2″-ethyl)benzenesulfonylamino]phenylpropionic acid]",
60 ± 10,24 ± 8,,"C[C@@H](C(=O)O)c1ccc(NS(=O)(=O)Cc2ccccc2)cc1 [Example 31, (R) 2-(4′-benzylsulfonylamino)phenylpropionic acid]",
65 ± 10,5 ± 7,,"C[C@@H](C(=O)O)c1ccc(OS(N)(=O)=O)cc1 [Example 41, (R) 2-(4′-aminosulfonyloxy)phenylpropionic acid]",
54 ± 14,44 ± 12,,"CC(C)S(=O)(=O)Nc1ccc([C@@H](C)C(=O)O)cc1 [Example 29, (R) 2-[4′-(2″-propane)sulfonylamino]phenylpropionic acid]",
25 ± 7,65 ± 10,,"C[C@@H](C(=O)O)c1ccc(OS(=O)(=O)c2ccccc2Cl)cc1 [Example 39, (R) 2-[4′-(2″-chloro)benzenesulfonyloxy]phenylpropionic acid]",
8 ± 10,40 ± 14,,"C[C@@H](C(=O)O)c1ccc(NS(=O)(=O)C(F)(F)F)cc1 [Example 30, (R) 2-(4′-trifluoromethanesulfonylamino)phenylpropionic acid]",
49 ± 8,46 ± 6,,"CC(C)S(=O)(=O)Oc1ccc([C@@H](C)C(=O)O)cc1 [Example 38, (R) 2-[4′-(2″-propane)sulfonyloxy]phenylpropionic acid]",
60 ± 7,52 ± 5,,"C[C@@H](C(=O)O)c1ccc(CS(=O)(=O)c2ccccc2)cc1 [Example 42, (R) 2-(4′-benzenesulfonylmethyl)phenylpropionic acid]",
